Data published in article PMC3282769 (PLoS ONE, 2012).

What was measured:
[1] = target: T1, truncated PTC (PTC lacking the C-terminal helix 13) (Enterococcus faecalis, UniProt Q837U7); test: X-ray crystal structure, […] Å; format: binding; conditions: bisubstrate analogue in active site; pH 7.5
T1 construct: gene ptcA

[2] = target: T2, PTC (putrescine transcarbamylase) (Enterococcus faecalis, UniProt Q837U7); test: X-ray crystal structure, […] Å; format: binding; conditions: bisubstrate analogue in active site; pH 5.5
T2 construct: gene ptcA

[3] = target: T3, OTC (ornithine transcarbamylase) (Enterococcus faecalis, UniProt Q839Q5); test: citrulline production, approach to equilibrium; turnover only; format: biochemical; conditions: 10 mM ornithine, 10 mM carbamylphosphate, 0.1 M Tris-HCl pH 8.5, 37°C
T3 construct: gene arcB
T3 sequence (Q839Q5 1-339): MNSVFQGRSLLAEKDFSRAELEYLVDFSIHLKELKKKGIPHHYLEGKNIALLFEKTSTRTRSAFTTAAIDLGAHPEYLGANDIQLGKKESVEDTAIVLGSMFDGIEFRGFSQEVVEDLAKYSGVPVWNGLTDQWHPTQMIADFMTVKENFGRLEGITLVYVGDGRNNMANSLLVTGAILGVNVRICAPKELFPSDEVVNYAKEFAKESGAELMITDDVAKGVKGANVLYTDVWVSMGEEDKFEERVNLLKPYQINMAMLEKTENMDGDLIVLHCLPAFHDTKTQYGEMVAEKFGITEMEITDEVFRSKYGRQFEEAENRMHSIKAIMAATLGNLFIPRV

[4] = target: T2, PTC (putrescine transcarbamylase); test: inhibition of transcarbamylase activity, PAPU titration; format: biochemical; conditions: putrescine or ornithine as substrate (one common curve); bisubstrate analogue inhibitor
[5] = target: T2, PTC (putrescine transcarbamylase); test: X-ray crystal structure, […] Å; format: binding; conditions: bisubstrate analogue in active site; pH 5.5; remark: listed apart in the source

T2 sequence (Q837U7 whole entry): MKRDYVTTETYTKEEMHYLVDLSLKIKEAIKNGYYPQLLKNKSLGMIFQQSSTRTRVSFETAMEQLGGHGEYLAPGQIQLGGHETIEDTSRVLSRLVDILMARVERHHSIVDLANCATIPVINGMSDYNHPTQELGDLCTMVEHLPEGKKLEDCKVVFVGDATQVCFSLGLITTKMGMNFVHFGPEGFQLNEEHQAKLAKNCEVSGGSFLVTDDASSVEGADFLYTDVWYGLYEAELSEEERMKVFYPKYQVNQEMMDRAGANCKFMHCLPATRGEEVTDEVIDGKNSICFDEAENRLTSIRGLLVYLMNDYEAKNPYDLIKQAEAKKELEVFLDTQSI
T1 sequence (Q837U7 1-317): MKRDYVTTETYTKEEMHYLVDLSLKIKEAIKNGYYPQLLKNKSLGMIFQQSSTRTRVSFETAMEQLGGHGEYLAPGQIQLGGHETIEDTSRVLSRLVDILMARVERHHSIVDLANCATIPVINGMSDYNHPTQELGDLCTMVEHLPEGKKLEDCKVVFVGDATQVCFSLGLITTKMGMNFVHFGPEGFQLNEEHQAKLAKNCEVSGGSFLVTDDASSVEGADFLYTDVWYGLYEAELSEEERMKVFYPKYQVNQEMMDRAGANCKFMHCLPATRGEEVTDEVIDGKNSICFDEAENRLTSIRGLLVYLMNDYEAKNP

N[C@@H](CCCNC(=O)CP(=O)(O)O)C(=O)O [PALO, δ-N-(phosphonoacetyl)-L-ornithine]
X-ray crystal structure, 1.59 Å [1]: 4A8H, 4A8P and 4A8T for PTC-PAPU, PTC-PALO and truncated PTC-PALO, respectively
X-ray crystal structure, 2.0 Å [2]: 4A8H, 4A8P and 4A8T for PTC-PAPU, PTC-PALO and truncated PTC-PALO, respectively

NCCC[C@H](N)C(=O)O [L-ornithine]
citrulline production, approach to equilibrium; turnover only [3]: carbamylation of ornithine (open symbols) using either OTC (squares) or PTC (triangles)

NCCCCNC(=O)CP(=O)(O)O [PAPU, N-(phosphonoacetyl)-putrescine]
% activity [4]: PAPU inhibited similarly the activities of PTC with putrescine and with ornithine
X-ray crystal structure, 2.5 Å [5]: 4A8H, 4A8P and 4A8T for PTC-PAPU, PTC-PALO and truncated PTC-PALO, respectively
